Patent publication US20240390484A1 (priority 2022, published 2024)

Experiments:
[1] = test system: BHK-21 cells; format: cell-based; conditions: ready-to-use S2P RNA, 4 μg, 48 hours post transfection; 48/40.5/10/1.5 mol %
[2] = Stability of blank-LNP at 2-8° C. (particle size, PDI); format: physicochemical; conditions: blank-LNP 48/40.5/10/1.5 mol %
Procedure: (§1) Lipid nanoparticles (LNPs) were formed or formulated by rapid mixing of an ethanol phase and an aqueous phase using a microfluidic device. The aqueous phase included a 50 mM citrate buffer (pH 5.5). The ethanol phase included an ionizable lipid (as described herein), cholesterol (Jiangsu Southeast Nanomaterials), 1,2-diastearoyl-sn-glycero-3-phosphocholine (DSPC) (Jiangsu Southeast Nanomaterials) and 1,2-dimyristoyl-rac-glycero-3-methoxypolyethylene glycol-2000 (DMG-PEG2000) (SINOPEG). A series of ionizable lipids were evaluated. These four lipid components were mixed at defined molar ratios in ethanol, for instance, at a molar ratio of 48:40.5:10:1.5 (ionizable lipid:cholesterol:DSPC:DMG-PEG2000). The generated LNP particles were purified in citrate buffer (containing sucrose) and characterized with respect to particle size, polydispersity index (PDI) and ionizable lipid concentration. The LNP solution was then diluted to the target concentration and stored at 2-8° C.
Each generated blank-LNP formulation was added to and mixed with lyophilized S2P RNA, altogether yielding a series of “ready-to-use” S2P RNA test items containing the different ionizable lipids. The pharmaceutical characteristics (Table 3) and in vitro transfection efficiency (Table 4) of these “ready-to-use” RNA test items were compared head-to-head. In parallel, the stability profiles of these […] blank-LNP formulations (i.e. without RNA complexation) were assessed at 2-8° C. (see Table 5).
The generated fourteen blank-LNP formulations were characterized in terms of particle size and PDI, both at the end of manufacturing (T=0) and 8-week storage at 2-8° C. […] (defined as size increase ≤20 nm in 8 weeks), namely DMG-PEG2000 between at least 1-4 mol %, DSPC between at least 5-20 mol %, ionizable lipid between at least 30-70 mol % and cholesterol between at least 18.5-58.5 mol %.

[3] = RNA encapsulation/complexation efficiency by Ribogreen assay; format: physicochemical; conditions: 48/40.5/10/1.5 mol %; blank-LNP added to lyophilized S2P RNA (55 ug/vial), N/P 7
Procedure: (§2) In the case of a filled LNP, for example, an LNP-encapsulated S-2P RNA liquid drug product, the preparation protocol is essentially the same, except that it was an aqueous solution of S-2P RNA in citrate buffer pH 5-6 that constitutes the aqueous phase for LNP formation. The LNP-encapsulated RNA formulation is also referred to as “RNA-LNP” in this disclosure. Regarding characterization, particle size and polydispersity index (PDI) of the RNA-LNP were determined by Dynamic Light Scattering (DLS); RNA encapsulation efficiency and concentration were determined by means of Ribogreen® assay and RNA purity was determined by agarose gel electrophoresis.
(§3) The “ready-to-use” RNA product was manufactured by transferring a predetermined amount of already formed LNP in solution to a sealed vial containing the lyophilized RNA composition, followed by mixing at room temperature. The amount of LNP added per vial (e.g., 30-100 μg RNA per vial) was determined based on the molar ionizable lipid:RNA (N/P) molar ratio of 7. In this disclosure, “ready-to-use” S-2P RNA formulations (also referred to as “LNP(S-2P RNA)”) containing 30-100 μg/mL S-2P RNA were prepared, and then characterized with respect to particle size, polydispersity index, as well as RNA concentration, complexation efficiency, and purity using the same methods as described above in Example 3.

[4] = test system: Vero E6 cells; format: cell-based; conditions: ready-to-use S2P RNA, 4 μg, 48 hours post transfection; 48/40.5/10/1.5 mol %
[5] = Particle size and polydispersity index (PDI) by Dynamic Light Scattering; format: physicochemical; conditions: for “Ready-to-use” S2P RNA formulation PDI / “Ready-to-use” S2P RNA formulation Size: 48/40.5/10/1.5 mol %, blank-LNP added to lyophilized S2P RNA (55 ug/vial), N/P 7; for Blank-LNP PDI / Blank-LNP Size: 48/40.5/10/1.5 mol % ionizable lipid/cholesterol/DSPC/DMG-PEG
Procedure: as §1, §2, §3

Row | SMILES | RBD expression in BHK-21 cells [1] | PDI, T = 1 month [2] | Size, T = 1 month [2] [nm] | Change in size (nm) vs. T0, T = 2 weeks [2] | PDI, T = 2 weeks [2] | Size, T = 2 weeks [2] [nm] | PDI, T = 0 [2] | Size, T = 0 [2] [nm] | “Ready-to-use” S2P RNA formulation RNA complexation efficiency [3] [%] | RBD expression in Vero E6 cells [4] | “Ready-to-use” S2P RNA formulation PDI [5] | “Ready-to-use” S2P RNA formulation Size [5] [nm] | Blank-LNP PDI [5] | Blank-LNP Size [5] [nm] | Change in size (nm) vs. T0, T = 1 month [2]
1 | CCCCCCCCCCC(CCCCCCCCCC)C(=O)OCCCCCCOc1ccc(OCCCCCCOC(=O)C(CCCCCCCCCC)CCCCCCCCCC)c(COC(=O)CCCN(C)C)c1 [Lipid #8] | <LOD | 0.17 | 90 | −3 nm | 0.07 | 83 | 0.13 | 86 | 34 | <LOD | 0.11 | 130 | 0.13 | 86 | 
2 | CCCCCC/C=C/COC(=O)CCCCCCCCC(CCCCCCCCC(=O)OC/C=C/CCCCCC)OC(=O)CCCN(C)C [Lipid #9] | 0.50 ng/mL | 0.10 | 229 | +7 nm | 0.05 | 214 | 0.09 | 207 | 34 | 0.16 ng/mL | 0.18 | 280 | 0.09 | 207 | +22 nm
3 | CC/C=C/CCCC(CCC/C=C/CC)OC(=O)CCCCCCCC(CCCCCCCC(=O)OC/C=C/CCCCCC)COC(=O)CCCN(C)C (centres unmarked) [Lipid #10] | 0.33 ng/mL | 0.21 | 120 | +16 nm | 0.11 | 107 | 0.05 | 91 | 34 | 0.25 ng/mL | 0.21 | 204 | 0.05 | 91 | +29 nm
